Results: patent publication US11040031B2, “Pyrazole derivatives as MALT1 inhibitors” (Janssen Pharmaceutica NV, priority 2018, dated 2021)
Read-outs that look alike come from different tables or passages of the source.

Experiments:
[1] = tested on: Secretion of IL6 by TMD8 ABC-DLBCL cells; test: Human IL6 Mesoscale assay (TMD-8); format: cell-based; conditions: read-out: Human IL6 Mesoscale assay (TMD-8)
Description: (§1) NFKB signaling regulates the secretion of multiple cytokines, including IL6 and IL10. Secretion of the cytokines IL6 and IL10 by TMD8 or OCI-LY3 ABC-DLBCL cells was measured using a mesoscale assay.
(§2) Cell passage number should not exceed 30. Cells should be kept between 0.5-2.5 million cells per mL during culturing and cells should be supplemented every 2-3 days with fresh 50 µM beta-mercaptoenthanol. No beta-mercaptoethanol was used during the mesoscale assay.
(§3) DMSO control wells were used to determine the maximum signal (High Control (HC)). […] Compounds and cells were incubated for 24 h at 37° C. and 5% CO2 (assay volume is 150 μL). After 24 h of incubation 50 μL of the supernatant was transferred to a MSD plate (V-Plex Proinflammation Panel 1 (human) kit, Mesoscale (MSD)) and incubated for 2 h with vigorous shaking (600 rpm) at room temperature. Following incubation, plates were washed 3× with PBS+0.05% Tween-20 and 25 μL detection antibody solution (IL6 & IL10 antibodies in diluent 3 (MSD)) was added per well followed by 2 h of incubation with vigorous shaking (600 rpm) at room temperature. After 3× washes with PBS+0.05% Tween-20, plates were incubated with 150 μL 2× Read Buffer T and read on SECTOR imager.

[2] = tested on: Secretion of IL10 by TMD8 ABC-DLBCL cells; test: Human IL10 Mesoscale assay (TMD-8); format: cell-based; conditions: read-out: Human IL10 Mesoscale assay (TMD-8)
Description: as §1, §2, §3

[3] = tested on: OCI-Ly3 ABC-DLBCL cell line; test: 4-day proliferation assay OCI-Ly3; format: cell-based; conditions: Homo sapiens, read-out: Anti-proliferation: OCI-LY-3 IC50
Summary of the method: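 10,000 OCI-Ly3 cells per well cultured 4 days at 37° C., 5% CO2 without beta-mercaptoethanol, at densities giving linear growth. Viability read by CellTiterGLO luminescence after 10 min at room temperature.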

[4] = biological target: T1, full-length MALT1 protein (Strep-MALT1(1-824)-His) (Homo sapiens, UniProt Q9UDY8); test: biochemical;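 note: fluorogenic LRSR-AMC substrate cleavage by MALT1, 50 min compound preincubation then 4 h reaction at RT, 11-point dilution from 30 µM, scaled between enzyme-free and untreated enzyme controls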
T1 sequence (Q9UDY8 1-824): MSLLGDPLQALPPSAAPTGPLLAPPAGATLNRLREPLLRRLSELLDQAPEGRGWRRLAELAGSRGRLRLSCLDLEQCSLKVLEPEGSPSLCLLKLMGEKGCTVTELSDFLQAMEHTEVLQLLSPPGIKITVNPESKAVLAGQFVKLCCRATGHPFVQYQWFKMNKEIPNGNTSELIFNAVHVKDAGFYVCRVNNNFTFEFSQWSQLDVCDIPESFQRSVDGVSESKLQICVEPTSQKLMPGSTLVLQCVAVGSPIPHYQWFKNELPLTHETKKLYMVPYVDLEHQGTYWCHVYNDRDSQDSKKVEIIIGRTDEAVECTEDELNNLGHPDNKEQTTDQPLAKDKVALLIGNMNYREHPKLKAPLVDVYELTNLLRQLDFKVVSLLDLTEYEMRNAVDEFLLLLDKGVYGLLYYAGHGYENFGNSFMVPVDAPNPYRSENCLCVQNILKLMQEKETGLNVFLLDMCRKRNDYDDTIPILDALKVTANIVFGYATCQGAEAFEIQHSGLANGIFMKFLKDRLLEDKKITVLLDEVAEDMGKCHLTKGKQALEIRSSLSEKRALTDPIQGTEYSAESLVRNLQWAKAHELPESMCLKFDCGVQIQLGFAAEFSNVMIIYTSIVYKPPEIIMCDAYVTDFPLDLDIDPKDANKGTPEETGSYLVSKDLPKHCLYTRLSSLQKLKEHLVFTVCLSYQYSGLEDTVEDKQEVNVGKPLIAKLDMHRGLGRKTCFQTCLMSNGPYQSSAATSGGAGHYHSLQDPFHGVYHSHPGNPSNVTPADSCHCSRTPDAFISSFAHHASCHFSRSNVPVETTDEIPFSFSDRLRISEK

[5] = tested on: Secretion of IL10 by OCI-LY3 ABC-DLBCL cells; test: Human IL10 Mesoscale assay (OCI-LY3); format: cell-based; conditions: OCI-LY3 cells, 24 h incubation, supernatant, MSD V-Plex, read-out: Human IL10 Mesoscale assay (OCI-LY3)
Summary of the method: (§4)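 TMD8 or OCI-LY3 ABC-DLBCL cells incubated with compound 24 h at 37° C without beta-mercaptoethanol. Secreted IL6 and IL10 in supernatant quantified by MSD electrochemiluminescence immunoassay; DMSO wells define maximum signal.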

[6] = tested on: Secretion of IL6 by OCI-LY3 ABC-DLBCL cells; test: Human IL6 Mesoscale assay (OCI-LY3); format: cell-based; conditions: OCI-LY3 cells, 24 h incubation, supernatant, MSD V-Plex, read-out: Human IL6 Mesoscale assay (OCI-LY3)
Summary of the method: as §4

[7] = TMD8 cells, 24 h incubation, supernatant, MSD V-Plex
[8] = 96 h, 10,000 OCI-Ly3 cells per well, 4 days, CellTiterGLO

| IC50 ([1]; TMD8, 24 h) [nM] | IC50 ([2]; TMD8, 24 h) [nM] | IC50 ([3]; OCI-Ly3, 96 h) [nM] | IC50 [4] [nM] | IC50 [1, 7] [nM] | IC50 [2, 7] [nM] | IC50 [3, 8] [nM] | IC50 [5] [nM] | IC50 [6] [nM] | SMILES |
| --- | --- | --- | --- | --- | --- | --- | --- | --- | --- |
| 35 | 48 | 468 | 41 | – | – | – | – | – | N#Cc1cc(NC(=O)c2cnn(-c3cccc4c3OCO4)c2C(F)(F)F)cnc1-n1nccn1 [Cpd 59, 1-(benzo[d][1,3]dioxol-4-yl)-N-(5-cyano-6-(2H-1,2,3-triazol-2-yl)pyridin-3-yl)-5-(trifluoromethyl)-1H-pyrazole-4-carboxamide] |
| – | – | – | 151 | 135 | 132 | 1230 | – | – | Cc1ccccc1-n1ncc(C(=O)Nc2cnc(-n3nccn3)c(Cl)c2)c1C(F)(F)F [Cpd 29, N-(5-chloro-6-(2H-1,2,3-triazol-2-yl)pyridin-3-yl)-1-(o-tolyl)-5-(trifluoromethyl)-1H-pyrazole-4-carboxamide] |
| – | – | – | 148 | 316 | 282 | 2140 | – | – | COc1ncccc1-n1ncc(C(=O)Nc2cnc(-n3nccn3)c(Cl)c2)c1C(F)(F)F [Cpd 14, N-(5-Chloro-6-(2H-1,2,3-triazol-2-yl)pyridin-3-yl)-1-(2-methoxypyridin-3-yl)-5-(trifluoromethyl)-1H-pyrazole-4-carboxamide] |
| – | – | – | 117 | 79 | 85 | 1350 | 58 | 83 | Cc1cc(F)ccc1-n1ncc(C(=O)Nc2cnc(-n3nccn3)c(Cl)c2)c1C(F)(F)F [Cpd 1, N-(5-Chloro-6-(2H-1,2,3-triazol-2-yl)pyridin-3-yl)-1-(4-fluoro-2-methylphenyl)-5-(trifluoromethyl)-1H-pyrazole-4-carboxamide] |
| – | – | – | 589 | 1120 | 646 | 575 | – | – | COc1nccc(-n2ncc(C(=O)Nc3cnc(-n4nccn4)c(C#N)c3)c2C(F)(F)F)c1Cl [Cpd 32, 1-(3-Chloro-2-methoxypyridin-4-yl)-N-(5-cyano-6-(2H-1,2,3-triazol-2-yl)pyridin-3-yl)-5-(trifluoromethyl)-1H-pyrazole-4-carboxamide] |
| 1620 | 513 | 3630 | 204 | – | – | – | – | – | N#Cc1cc(NC(=O)c2cnn(-c3c(Cl)cncc3Cl)c2C(F)(F)F)cnc1-n1nccn1 [Cpd 48, N-(5-cyano-6-(2H-1,2,3-triazol-2-yl)pyridin-3-yl)-1-(3,5-dichloropyridin-4-yl)-5-(trifluoromethyl)-1H-pyrazole-4-carboxamide] |
| – | – | – | 295 | 263 | 741 | 380 | – | – | O=C(Nc1cnc(-n2nccn2)c(Cl)c1)c1cnn(-c2ccccc2)c1C(F)(F)F [Cpd 5, N-(5-Chloro-6-(2H-1,2,3-triazol-2-yl)pyridin-3-yl)-1-phenyl-5-(trifluoromethyl)-1H-pyrazole-4-carboxamide] |
| – | – | – | 1120 | 912 | 1260 | 741 | – | – | N#Cc1cccc(-n2ncc(C(=O)Nc3cnc(-n4nccn4)c(Cl)c3)c2C(F)(F)F)c1 [Cpd 21, N-(5-chloro-6-(2H-1,2,3-triazol-2-yl)pyridin-3-yl)-1-(3-cyanophenyl)-5-(trifluoromethyl)-1H-pyrazole-4-carboxamide] |
| – | – | – | 170 | 4790 | 2240 | 6310 | – | – | Cc1nccc(-n2ncc(C(=O)Nc3cnc(-n4nccn4)c(C#N)c3)c2C(F)(F)F)c1Cl [Cpd 43, 1-(3-chloro-2-methylpyridin-4-yl)-N-(5-cyano-6-(2H-1,2,3-triazol-2-yl)pyridin-3-yl)-5-(trifluoromethyl)-1H-pyrazole-4-carboxamide] |
| 407 | 631 | 457 | 145 | – | – | – | – | – | N#Cc1cc(NC(=O)c2cnn(-c3ncc(F)cc3Br)c2C(F)(F)F)cnc1-n1nccn1 [Cpd 34, 1-(3-Bromo-5-fluoropyridin-2-yl)-N-(5-cyano-6-(2H-1,2,3-triazol-2-yl)pyridin-3-yl)-5-(trifluoromethyl)-1H-pyrazole-4-carboxamide] |
| – | – | – | 87 | 162 | 339 | 4790 | – | – | N#Cc1cc(NC(=O)c2cnn(-c3ccncc3Cl)c2C(F)(F)F)cnc1-n1nccn1 [Cpd 45, 1-(3-chloropyridin-4-yl)-N-(5-cyano-6-(2H-1,2,3-triazol-2-yl)pyridin-3-yl)-5-(trifluoromethyl)-1H-pyrazole-4-carboxamide] |
| 5500 | 7080 | 7080 | 427 | – | – | – | – | – | Cc1cc(-n2ncc(C(=O)Nc3cnc(-n4nccn4)c(Cl)c3)c2C(F)(F)F)c(Cl)cn1 [Cpd 68, 1-(5-chloro-2-methylpyridin-4-yl)-N-(5-chloro-6-(2H-1,2,3-triazol-2-yl)pyridin-3-yl)-5-(trifluoromethyl)-1H-pyrazole-4-carboxamide] |
| – | – | – | 132 | 148 | 65 | 741 | – | – | Cc1cc(Cl)ccc1-n1ncc(C(=O)Nc2cnc(-n3nccn3)c(Cl)c2)c1C(F)(F)F [Cpd 2, 1-(4-Chloro-2-methylphenyl)-N-(5-chloro-6-(2H-1,2,3-triazol-2-yl)pyridin-3-yl)-5-(trifluoromethyl)-1H-pyrazole-4-carboxamide] |
| – | – | – | 74 | 89 | 209 | 1860 | 145 | 166 | N#Cc1cc(NC(=O)c2cnn(-c3ccnc4c3OCO4)c2C(F)(F)F)cnc1-n1nccn1 [Cpd 53, 1-([1,3]dioxolo[4,5-b]pyridin-7-yl)-N-(5-cyano-6-(2H-1,2,3-triazol-2-yl)pyridin-3-yl)-5-(trifluoromethyl)-1H-pyrazole-4-carboxamide] |
| 891 | 1070 | 479 | 933 | – | – | – | – | – | Cc1ccc(-n2ncc(C(=O)Nc3cnc(-n4nccn4)c(Cl)c3)c2C(F)(F)F)nc1 [Cpd 23, N-(5-chloro-6-(2H-1,2,3-triazol-2-yl)pyridin-3-yl)-1-(5-methylpyridin-2-yl)-5-(trifluoromethyl)-1H-pyrazole-4-carboxamide] |
| 4470 | 3550 | 6610 | 204 | – | – | – | – | – | Cc1cc(-n2ncc(C(=O)Nc3cnc(-n4nccn4)c(C#N)c3)c2C(F)(F)F)c(Cl)cn1 [Cpd 70, 1-(5-chloro-2-methylpyridin-4-yl)-N-(5-cyano-6-(2H-1,2,3-triazol-2-yl)pyridin-3-yl)-5-(trifluoromethyl)-1H-pyrazole-4-carboxamide] |
| – | – | – | 257 | 2290 | 3240 | 2090 | – | – | Cc1nccc(-n2ncc(C(=O)Nc3cnc(-n4nccn4)c(Cl)c3)c2C(F)(F)F)c1Cl [Cpd 69, 1-(3-chloro-2-methylpyridin-4-yl)-N-(5-chloro-6-(2H-1,2,3-triazol-2-yl)pyridin-3-yl)-5-(trifluoromethyl)-1H-pyrazole-4-carboxamide] |
